Experimental data: PubChem BioAssay (NCI)
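Assay format: 96-well plates, 48-hour exposure. TGI: total growth inhibition.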

These compounds were tested on CAKI-1 renal (assay: NCI anticancer screen, dose series, 48 h).
NC1=NN(c2ccccc2)C(=O)C1C(=O)CCC(=O)Nc1cccc(C(F)(F)F)c1 (stereo unspecified) showed a TGI greater than 100 µM. Work on CC1=C2C(=O)O[C@@H](c3ccoc3)[C@]2(C)CCC1 yielded a TGI greater than 100 µM. COC(=O)C1=NC(=S)NC(c2ccccc2)C1c1nc2ccccc2s1 (stereo unspecified) was tested, and the TGI was greater than 100 µM. For Cc1noc(C)c1CCCOC1COc2ccccc2OCCOCCOc2ccccc2OC1, the TGI was greater than 100 µM. Compound CCN(CC)C(=O)c1cc(OC(C)C)ccc1-c1c(C)cc(OC(C)C)c(OC)c1OC has a TGI greater than 100 µM. In the case of Cc1cccc(NC(=O)C(=O)Cc2nc3ccccc3[nH]c2=O)c1C, the TGI was greater than 100 µM. Compound C=CCCCCCCCCC(=O)NS(=O)(=O)c1ccccc1 has a TGI greater than 100 µM.

What follows are compounds tested on KM20L2 colon (assay: NCI anticancer screen, dose series, 48 h).
For NC1=NN(c2ccccc2)C(=O)C1C(=O)CCC(=O)Nc1cccc(C(F)(F)F)c1 (stereo unspecified), the TGI was greater than 100 µM. Work on CC1=C2C(=O)O[C@@H](c3ccoc3)[C@]2(C)CCC1 yielded a TGI greater than 100 µM. In the case of CC1=C(C)CC2(CCCCC2=O)S(=O)C1 (stereo unspecified), the TGI was greater than 100 µM. For COC(=O)C1=NC(=S)NC(c2ccccc2)C1c1nc2ccccc2s1 (stereo unspecified), the TGI was greater than 100 µM. Compound Cc1noc(C)c1CCCOC1COc2ccccc2OCCOCCOc2ccccc2OC1 has a TGI greater than 100 µM. For CCN(CC)C(=O)c1cc(OC(C)C)ccc1-c1c(C)cc(OC(C)C)c(OC)c1OC, the TGI was greater than 100 µM. In the case of Cc1cccc(NC(=O)C(=O)Cc2nc3ccccc3[nH]c2=O)c1C, the TGI was greater than 100 µM. C=CCCCCCCCCC(=O)NS(=O)(=O)c1ccccc1 showed a TGI greater than 100 µM.

What follows are compounds tested on OVCAR-3 ovarian (assay: NCI anticancer screen, dose series, 48 h).
In the case of NC1=NN(c2ccccc2)C(=O)C1C(=O)CCC(=O)Nc1cccc(C(F)(F)F)c1 (stereo unspecified), the TGI was greater than 100 µM. For CC1=C2C(=O)O[C@@H](c3ccoc3)[C@]2(C)CCC1, the TGI was greater than 100 µM. For CC1=C(C)CC2(CCCCC2=O)S(=O)C1 (stereo unspecified), the TGI was greater than 100 µM. Compound COC(=O)C1=NC(=S)NC(c2ccccc2)C1c1nc2ccccc2s1 (stereo unspecified) has a TGI greater than 100 µM. Cc1noc(C)c1CCCOC1COc2ccccc2OCCOCCOc2ccccc2OC1 was tested, and the TGI was greater than 100 µM. In the case of CCN(CC)C(=O)c1cc(OC(C)C)ccc1-c1c(C)cc(OC(C)C)c(OC)c1OC, the TGI was greater than 100 µM. Work on Cc1cccc(NC(=O)C(=O)Cc2nc3ccccc3[nH]c2=O)c1C yielded a TGI greater than 100 µM. Work on C=CCCCCCCCCC(=O)NS(=O)(=O)c1ccccc1 yielded a TGI greater than 100 µM.

The compounds below were run on DLD-1 colon (assay: NCI anticancer screen, dose series, 48 h).
Work on NC1=NN(c2ccccc2)C(=O)C1C(=O)CCC(=O)Nc1cccc(C(F)(F)F)c1 (stereo unspecified) yielded a TGI greater than 100 µM. CC1=C2C(=O)O[C@@H](c3ccoc3)[C@]2(C)CCC1 showed a TGI greater than 100 µM. CC1=C(C)CC2(CCCCC2=O)S(=O)C1 (stereo unspecified) was tested, and the TGI was greater than 100 µM. COC(=O)C1=NC(=S)NC(c2ccccc2)C1c1nc2ccccc2s1 (stereo unspecified) was tested, and the TGI was greater than 100 µM. For Cc1noc(C)c1CCCOC1COc2ccccc2OCCOCCOc2ccccc2OC1, the TGI was greater than 100 µM. CCN(CC)C(=O)c1cc(OC(C)C)ccc1-c1c(C)cc(OC(C)C)c(OC)c1OC was tested, and the TGI was greater than 100 µM. Cc1cccc(NC(=O)C(=O)Cc2nc3ccccc3[nH]c2=O)c1C gave a TGI greater than 100 µM. Work on C=CCCCCCCCCC(=O)NS(=O)(=O)c1ccccc1 yielded a TGI greater than 100 µM.

The compounds below were run on HCT-116 colon (assay: NCI anticancer screen, dose series, 48 h).
For NC1=NN(c2ccccc2)C(=O)C1C(=O)CCC(=O)Nc1cccc(C(F)(F)F)c1 (stereo unspecified), the TGI was greater than 100 µM. CC1=C2C(=O)O[C@@H](c3ccoc3)[C@]2(C)CCC1 gave a TGI greater than 100 µM. In the case of CC1=C(C)CC2(CCCCC2=O)S(=O)C1 (stereo unspecified), the TGI was greater than 100 µM. COC(=O)C1=NC(=S)NC(c2ccccc2)C1c1nc2ccccc2s1 (stereo unspecified) gave a TGI greater than 100 µM. Work on CCN(CC)C(=O)c1cc(OC(C)C)ccc1-c1c(C)cc(OC(C)C)c(OC)c1OC yielded a TGI greater than 100 µM. Cc1cccc(NC(=O)C(=O)Cc2nc3ccccc3[nH]c2=O)c1C gave a TGI greater than 100 µM. For C=CCCCCCCCCC(=O)NS(=O)(=O)c1ccccc1, the TGI was greater than 100 µM.

These compounds were tested on LXFL 529 NSCLC (assay: NCI anticancer screen, dose series, 48 h).
For NC1=NN(c2ccccc2)C(=O)C1C(=O)CCC(=O)Nc1cccc(C(F)(F)F)c1 (stereo unspecified), the TGI was greater than 100 µM. CC1=C2C(=O)O[C@@H](c3ccoc3)[C@]2(C)CCC1 gave a TGI greater than 100 µM. With CC1=C(C)CC2(CCCCC2=O)S(=O)C1 (stereo unspecified) the TGI was greater than 100 µM. For COC(=O)C1=NC(=S)NC(c2ccccc2)C1c1nc2ccccc2s1 (stereo unspecified), the TGI was greater than 100 µM. Compound Cc1noc(C)c1CCCOC1COc2ccccc2OCCOCCOc2ccccc2OC1 has a TGI greater than 100 µM. Cc1cccc(NC(=O)C(=O)Cc2nc3ccccc3[nH]c2=O)c1C was tested, and the TGI was greater than 100 µM. With C=CCCCCCCCCC(=O)NS(=O)(=O)c1ccccc1 the TGI was greater than 100 µM.

Each compound was assayed on NCI-H522 lung (assay: NCI anticancer screen, dose series, 48 h).
Compound CC1=C2C(=O)O[C@@H](c3ccoc3)[C@]2(C)CCC1 has a TGI greater than 100 µM. Compound Cc1noc(C)c1CCCOC1COc2ccccc2OCCOCCOc2ccccc2OC1 has a TGI greater than 100 µM. With CCN(CC)C(=O)c1cc(OC(C)C)ccc1-c1c(C)cc(OC(C)C)c(OC)c1OC the TGI was greater than 100 µM. Cc1cccc(NC(=O)C(=O)Cc2nc3ccccc3[nH]c2=O)c1C gave a TGI greater than 100 µM. For C=CCCCCCCCCC(=O)NS(=O)(=O)c1ccccc1, the TGI was greater than 100 µM.

Each compound was assayed on SNB-75 CNS (assay: NCI anticancer screen, dose series, 48 h).
For CC1=C2C(=O)O[C@@H](c3ccoc3)[C@]2(C)CCC1, the TGI was greater than 100 µM. Compound CC1=C(C)CC2(CCCCC2=O)S(=O)C1 (stereo unspecified) has a TGI greater than 100 µM. Compound COC(=O)C1=NC(=S)NC(c2ccccc2)C1c1nc2ccccc2s1 (stereo unspecified) has a TGI greater than 100 µM. Cc1noc(C)c1CCCOC1COc2ccccc2OCCOCCOc2ccccc2OC1 was tested, and the TGI was greater than 100 µM. Cc1cccc(NC(=O)C(=O)Cc2nc3ccccc3[nH]c2=O)c1C was tested, and the TGI was greater than 100 µM. C=CCCCCCCCCC(=O)NS(=O)(=O)c1ccccc1 was tested, and the TGI was greater than 100 µM.

Each compound was assayed on OVCAR-8 ovarian (assay: NCI anticancer screen, dose series, 48 h).
NC1=NN(c2ccccc2)C(=O)C1C(=O)CCC(=O)Nc1cccc(C(F)(F)F)c1 (stereo unspecified) was tested, and the TGI was greater than 100 µM. In the case of CC1=C2C(=O)O[C@@H](c3ccoc3)[C@]2(C)CCC1, the TGI was greater than 100 µM. In the case of CC1=C(C)CC2(CCCCC2=O)S(=O)C1 (stereo unspecified), the TGI was greater than 100 µM. In the case of COC(=O)C1=NC(=S)NC(c2ccccc2)C1c1nc2ccccc2s1 (stereo unspecified), the TGI was greater than 100 µM. With Cc1noc(C)c1CCCOC1COc2ccccc2OCCOCCOc2ccccc2OC1 the TGI was greater than 100 µM. CCN(CC)C(=O)c1cc(OC(C)C)ccc1-c1c(C)cc(OC(C)C)c(OC)c1OC showed a TGI greater than 100 µM. For Cc1cccc(NC(=O)C(=O)Cc2nc3ccccc3[nH]c2=O)c1C, the TGI was greater than 100 µM. C=CCCCCCCCCC(=O)NS(=O)(=O)c1ccccc1 gave a TGI greater than 100 µM.

Each compound was assayed on OVCAR-4 ovarian (assay: NCI anticancer screen, dose series, 48 h).
Compound NC1=NN(c2ccccc2)C(=O)C1C(=O)CCC(=O)Nc1cccc(C(F)(F)F)c1 (stereo unspecified) has a TGI greater than 100 µM. For CC1=C2C(=O)O[C@@H](c3ccoc3)[C@]2(C)CCC1, the TGI was greater than 100 µM. CC1=C(C)CC2(CCCCC2=O)S(=O)C1 (stereo unspecified) showed a TGI greater than 100 µM. With COC(=O)C1=NC(=S)NC(c2ccccc2)C1c1nc2ccccc2s1 (stereo unspecified) the TGI was greater than 100 µM. Cc1noc(C)c1CCCOC1COc2ccccc2OCCOCCOc2ccccc2OC1 showed a TGI greater than 100 µM. In the case of CCN(CC)C(=O)c1cc(OC(C)C)ccc1-c1c(C)cc(OC(C)C)c(OC)c1OC, the TGI was greater than 100 µM. With Cc1cccc(NC(=O)C(=O)Cc2nc3ccccc3[nH]c2=O)c1C the TGI was greater than 100 µM. C=CCCCCCCCCC(=O)NS(=O)(=O)c1ccccc1 gave a TGI greater than 100 µM.

What follows are compounds tested on MOLT-4 leukemia (assay: NCI anticancer screen, dose series, 48 h).
NC1=NN(c2ccccc2)C(=O)C1C(=O)CCC(=O)Nc1cccc(C(F)(F)F)c1 (stereo unspecified) showed a TGI greater than 100 µM. Work on CC1=C2C(=O)O[C@@H](c3ccoc3)[C@]2(C)CCC1 yielded a TGI greater than 100 µM. CC1=C(C)CC2(CCCCC2=O)S(=O)C1 (stereo unspecified) showed a TGI greater than 100 µM. In the case of COC(=O)C1=NC(=S)NC(c2ccccc2)C1c1nc2ccccc2s1 (stereo unspecified), the TGI was greater than 100 µM. CCN(CC)C(=O)c1cc(OC(C)C)ccc1-c1c(C)cc(OC(C)C)c(OC)c1OC showed a TGI greater than 100 µM. C=CCCCCCCCCC(=O)NS(=O)(=O)c1ccccc1 gave a TGI greater than 100 µM.

Each compound was assayed on SF-539 CNS (assay: NCI anticancer screen, dose series, 48 h).
NC1=NN(c2ccccc2)C(=O)C1C(=O)CCC(=O)Nc1cccc(C(F)(F)F)c1 (stereo unspecified) was tested, and the TGI was greater than 100 µM. For CC1=C2C(=O)O[C@@H](c3ccoc3)[C@]2(C)CCC1, the TGI was greater than 100 µM. CC1=C(C)CC2(CCCCC2=O)S(=O)C1 (stereo unspecified) showed a TGI greater than 100 µM. In the case of COC(=O)C1=NC(=S)NC(c2ccccc2)C1c1nc2ccccc2s1 (stereo unspecified), the TGI was greater than 100 µM. Compound Cc1noc(C)c1CCCOC1COc2ccccc2OCCOCCOc2ccccc2OC1 has a TGI greater than 100 µM. In the case of CCN(CC)C(=O)c1cc(OC(C)C)ccc1-c1c(C)cc(OC(C)C)c(OC)c1OC, the TGI was greater than 100 µM. Work on Cc1cccc(NC(=O)C(=O)Cc2nc3ccccc3[nH]c2=O)c1C yielded a TGI greater than 100 µM. For C=CCCCCCCCCC(=O)NS(=O)(=O)c1ccccc1, the TGI was greater than 100 µM.

Each compound was assayed on EKVX NSCLC (assay: NCI anticancer screen, dose series, 48 h).
NC1=NN(c2ccccc2)C(=O)C1C(=O)CCC(=O)Nc1cccc(C(F)(F)F)c1 (stereo unspecified) was tested, and the TGI was greater than 100 µM. For CC1=C2C(=O)O[C@@H](c3ccoc3)[C@]2(C)CCC1, the TGI was greater than 100 µM. For CC1=C(C)CC2(CCCCC2=O)S(=O)C1 (stereo unspecified), the TGI was greater than 100 µM. Work on COC(=O)C1=NC(=S)NC(c2ccccc2)C1c1nc2ccccc2s1 (stereo unspecified) yielded a TGI greater than 100 µM. Cc1noc(C)c1CCCOC1COc2ccccc2OCCOCCOc2ccccc2OC1 gave a TGI greater than 100 µM. Work on CCN(CC)C(=O)c1cc(OC(C)C)ccc1-c1c(C)cc(OC(C)C)c(OC)c1OC yielded a TGI greater than 100 µM. Compound Cc1cccc(NC(=O)C(=O)Cc2nc3ccccc3[nH]c2=O)c1C has a TGI greater than 100 µM. Compound C=CCCCCCCCCC(=O)NS(=O)(=O)c1ccccc1 has a TGI greater than 100 µM.

These compounds were tested on 786-0 renal (assay: NCI anticancer screen, dose series, 48 h).
NC1=NN(c2ccccc2)C(=O)C1C(=O)CCC(=O)Nc1cccc(C(F)(F)F)c1 (stereo unspecified) showed a TGI greater than 100 µM. CC1=C2C(=O)O[C@@H](c3ccoc3)[C@]2(C)CCC1 gave a TGI greater than 100 µM. With CC1=C(C)CC2(CCCCC2=O)S(=O)C1 (stereo unspecified) the TGI was greater than 100 µM. In the case of COC(=O)C1=NC(=S)NC(c2ccccc2)C1c1nc2ccccc2s1 (stereo unspecified), the TGI was greater than 100 µM. For Cc1noc(C)c1CCCOC1COc2ccccc2OCCOCCOc2ccccc2OC1, the TGI was greater than 100 µM. Compound Cc1cccc(NC(=O)C(=O)Cc2nc3ccccc3[nH]c2=O)c1C has a TGI greater than 100 µM. For C=CCCCCCCCCC(=O)NS(=O)(=O)c1ccccc1, the TGI was greater than 100 µM.

What follows are compounds tested on TK-10 renal (assay: NCI anticancer screen, dose series, 48 h).
NC1=NN(c2ccccc2)C(=O)C1C(=O)CCC(=O)Nc1cccc(C(F)(F)F)c1 (stereo unspecified) was tested, and the TGI was greater than 100 µM. CC1=C2C(=O)O[C@@H](c3ccoc3)[C@]2(C)CCC1 showed a TGI greater than 100 µM. CC1=C(C)CC2(CCCCC2=O)S(=O)C1 (stereo unspecified) gave a TGI greater than 100 µM. For COC(=O)C1=NC(=S)NC(c2ccccc2)C1c1nc2ccccc2s1 (stereo unspecified), the TGI was greater than 100 µM. Cc1noc(C)c1CCCOC1COc2ccccc2OCCOCCOc2ccccc2OC1 gave a TGI greater than 100 µM.
